The values that follow come from US10947242B2, “[1,2,4]triazolo[1,5and#8208;A]pyrimidine compounds as PDE2 inhibitors” (Janssen Pharmaceutica NV, priority 2016, dated 2021).

Read-outs that look alike come from different tables or passages of the source. A value given as a limit tells only on which side of the number the result lay.

Holding throughout (type): biochemical
The target in test [1] is T1, Human recombinant PDE3A (hPDE3A) (Homo sapiens, UniProt Q14432).
T1 construct: purchased Scottish Biomedical; host or cells: Sf9 insect cells
T1 sequence (Q14432 whole entry): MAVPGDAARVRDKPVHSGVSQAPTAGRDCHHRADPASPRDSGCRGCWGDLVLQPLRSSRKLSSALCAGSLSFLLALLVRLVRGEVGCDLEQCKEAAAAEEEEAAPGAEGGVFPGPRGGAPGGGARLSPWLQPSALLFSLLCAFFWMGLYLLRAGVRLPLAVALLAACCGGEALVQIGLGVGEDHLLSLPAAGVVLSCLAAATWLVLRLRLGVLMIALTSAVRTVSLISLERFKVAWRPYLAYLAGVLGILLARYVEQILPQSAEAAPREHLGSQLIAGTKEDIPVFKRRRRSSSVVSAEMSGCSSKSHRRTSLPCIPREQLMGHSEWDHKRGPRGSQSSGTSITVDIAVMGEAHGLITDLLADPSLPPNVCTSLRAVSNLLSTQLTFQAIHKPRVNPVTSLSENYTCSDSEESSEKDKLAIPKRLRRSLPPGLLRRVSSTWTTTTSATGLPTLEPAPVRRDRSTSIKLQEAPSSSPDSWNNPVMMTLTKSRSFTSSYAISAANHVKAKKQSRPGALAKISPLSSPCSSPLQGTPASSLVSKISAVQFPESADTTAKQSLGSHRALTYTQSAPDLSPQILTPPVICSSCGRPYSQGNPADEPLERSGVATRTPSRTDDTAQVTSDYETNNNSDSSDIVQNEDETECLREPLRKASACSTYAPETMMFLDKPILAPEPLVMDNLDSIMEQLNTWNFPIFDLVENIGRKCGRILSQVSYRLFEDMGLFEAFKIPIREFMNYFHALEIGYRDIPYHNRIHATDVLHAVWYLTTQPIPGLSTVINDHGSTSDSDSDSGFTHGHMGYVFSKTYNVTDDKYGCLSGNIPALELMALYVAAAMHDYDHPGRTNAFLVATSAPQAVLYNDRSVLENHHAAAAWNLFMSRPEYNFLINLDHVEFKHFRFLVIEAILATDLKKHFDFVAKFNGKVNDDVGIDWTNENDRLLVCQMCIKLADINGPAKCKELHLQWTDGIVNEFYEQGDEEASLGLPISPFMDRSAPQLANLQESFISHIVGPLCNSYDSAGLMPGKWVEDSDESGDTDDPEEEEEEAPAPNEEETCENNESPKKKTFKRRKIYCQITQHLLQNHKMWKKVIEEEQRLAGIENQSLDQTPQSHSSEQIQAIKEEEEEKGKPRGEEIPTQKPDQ
The experiment in a line: In vitro assay PDE3A (SPA, 3H-cAMP hydrolysis).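 As to Emax: the method names PDE3A and the table heading PDE3B.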 As to conditions: for IC50: hPDE3B pIC50; for Emax: read-out: hPDE3B Emax, read-out: Emax. The method, boiled down: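 Radiometric SPA measuring [3H]-cAMP hydrolysis (0.4 μM cAMP, 2.4 μCi/ml) over 60 min at room temperature, in Tris pH 7.8 buffer with MgCl2 and EGTA, 1% DMSO. Enzyme: recombinant human brain PDE3A expressed in Sf9 cells, used as partially purified lysate. Counts compared with enzyme-free blanks and vehicle controls.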

Test [2] addresses T2, Human recombinant PDE2A (hPDE2A) (Homo sapiens, UniProt O00408).
T2 construct: His tag (inferred from metal chelate purification); made in house; host or cells: Sf9 insect cells (baculovirus)
The experiment in a line: In vitro assay PDE2A (SPA, 3H-cGMP hydrolysis). The following applies: for Emax: read-out: hPDE2A Emax.

Test [3] concerns the target T3, Human recombinant PDE10A (hPDE10A) (Homo sapiens, UniProt Q9Y233).
T3 construct: His tag (inferred from metal chelate purification); made in house; host or cells: Sf9 insect cells (baculovirus)
Kind of test: In vitro assay PDE10A, human clone (SPA, 3H-cAMP hydrolysis). The method, boiled down:
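Hydrolysis of 3H-cAMP (60 nM cAMP, 0.008 μCi tracer) proceeded for 60 min at room temperature, with the product detected by SPA bead scintillation counting. The enzyme was hPDE10A from baculovirus-infected Sf9 cells in Tris pH 7.8 buffer with MgCl2 and EGTA, and compounds were at 1% DMSO final. Blanks lacked enzyme.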

The mark [4] stands for this setting: human recombinant PDE2A, 10 μM cGMP substrate, read-out: hPDE2A pIC50 (converted).
[5] abbreviates: read-out: hPDE2A pIC50 (converted).
The mark [6] stands for this setting: human clone (h), default, read-out: hPDE10A2 Emax.
[7] abbreviates: human clone (h), default, read-out: hPDE10A2 pIC50 (converted).
Where [8] appears, read: human clone by default (no (r) mark), read-out: hPDE10A2 or rPDE10A2 Emax.
Setting [9] is: human clone by default (no (r) mark), read-out: hPDE10A2 or rPDE10A2 pIC50 (converted).
Setting [10] is: human clone by default (no (r) mark).

T2 sequence (O00408 whole entry): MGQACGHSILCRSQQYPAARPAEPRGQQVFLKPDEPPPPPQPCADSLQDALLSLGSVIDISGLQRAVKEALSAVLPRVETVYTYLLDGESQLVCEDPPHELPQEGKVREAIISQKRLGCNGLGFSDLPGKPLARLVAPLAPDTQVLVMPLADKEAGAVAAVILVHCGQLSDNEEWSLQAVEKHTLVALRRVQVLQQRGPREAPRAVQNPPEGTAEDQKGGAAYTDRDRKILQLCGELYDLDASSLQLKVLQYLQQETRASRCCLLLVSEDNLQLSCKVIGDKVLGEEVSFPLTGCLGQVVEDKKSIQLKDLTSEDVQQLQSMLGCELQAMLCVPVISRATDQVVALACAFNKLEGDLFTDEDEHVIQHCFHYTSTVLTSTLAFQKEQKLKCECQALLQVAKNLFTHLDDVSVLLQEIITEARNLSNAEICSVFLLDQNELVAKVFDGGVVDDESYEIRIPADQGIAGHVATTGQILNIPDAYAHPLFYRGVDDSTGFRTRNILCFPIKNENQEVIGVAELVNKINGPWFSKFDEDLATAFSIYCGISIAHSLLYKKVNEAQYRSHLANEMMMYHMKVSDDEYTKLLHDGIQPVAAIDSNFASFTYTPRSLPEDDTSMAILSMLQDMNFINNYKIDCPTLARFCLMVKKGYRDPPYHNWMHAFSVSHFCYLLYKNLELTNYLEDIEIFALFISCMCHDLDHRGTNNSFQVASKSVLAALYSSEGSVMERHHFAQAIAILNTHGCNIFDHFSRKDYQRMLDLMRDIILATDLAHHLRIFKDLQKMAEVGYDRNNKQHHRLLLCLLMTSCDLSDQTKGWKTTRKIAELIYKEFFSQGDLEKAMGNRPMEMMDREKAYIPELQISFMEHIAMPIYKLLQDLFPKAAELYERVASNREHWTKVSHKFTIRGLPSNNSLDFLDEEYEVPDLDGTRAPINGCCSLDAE
T3 sequence (Q9Y233 267-1055): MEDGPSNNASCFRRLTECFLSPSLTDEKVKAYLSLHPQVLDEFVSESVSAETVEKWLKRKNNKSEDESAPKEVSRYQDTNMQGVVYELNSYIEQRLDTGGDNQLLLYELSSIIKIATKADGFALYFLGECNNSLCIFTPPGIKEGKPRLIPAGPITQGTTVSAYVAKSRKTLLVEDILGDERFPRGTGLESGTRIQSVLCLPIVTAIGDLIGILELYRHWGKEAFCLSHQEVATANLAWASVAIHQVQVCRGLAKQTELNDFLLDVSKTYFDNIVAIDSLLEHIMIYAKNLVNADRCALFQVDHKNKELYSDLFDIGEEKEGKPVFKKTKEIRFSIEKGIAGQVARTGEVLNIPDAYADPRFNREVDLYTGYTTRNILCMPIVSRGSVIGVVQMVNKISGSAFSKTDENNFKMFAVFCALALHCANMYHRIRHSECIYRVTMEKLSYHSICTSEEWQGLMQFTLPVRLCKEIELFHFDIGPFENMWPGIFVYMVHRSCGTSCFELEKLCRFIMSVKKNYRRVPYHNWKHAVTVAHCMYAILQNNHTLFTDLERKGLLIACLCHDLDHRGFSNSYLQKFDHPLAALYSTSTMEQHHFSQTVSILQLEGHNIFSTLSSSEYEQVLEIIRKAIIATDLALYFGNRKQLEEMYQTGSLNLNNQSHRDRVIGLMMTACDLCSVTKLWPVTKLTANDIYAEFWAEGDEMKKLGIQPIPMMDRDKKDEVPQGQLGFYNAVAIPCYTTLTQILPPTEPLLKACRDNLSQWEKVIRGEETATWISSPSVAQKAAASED

With `Cc1c(C(=O)N2CC[C@@H](C)[C@H](c3cc(C(F)F)nc4ncnn34)C2)sc2ccccc12` [Compound 119], the IC50 in test [1] (read-out: pIC50 (converted)) was 61.7 nM; in test [2] (setting [4]), 1.74 nM; in test [2] (setting [5]) it was 1.74 nM; in test [3] (setting [7]) it was 77.6 nM. The Emax is 101% in test [1], 100% in test [2] (human recombinant PDE2A), 100% in test [2] and 99% in test [3] (setting [6]).
Take `C[C@]1(c2cc(C(F)F)nc3ncnn23)CCCN(C(=O)c2ccc3nccn3c2)C1` (single isomer, unassigned) [Compound 212]: the IC50 in test [1] (read-out: pIC50 (converted)) is greater than 10000 nM; in test [2] (setting [4]) it was 575 nM; in test [2] (setting [5]) it was 575 nM; in test [3] (setting [7]), greater than 10000 nM. For the same molecule, the Emax in test [1] stood at 7%; in test [2] (human recombinant PDE2A), 61%; in test [2], 61%; in test [3] (setting [6]) it was 8%.
With `C[C@@H]1CCN(C(=O)c2cnc(N(C)C)nc2)C[C@H]1c1cc(C(F)F)nc2ncnn12` [Compound 174], the IC50 in test [1] (read-out: pIC50 (converted)) is 1320 nM; in test [2] (setting [4]), 5.25 nM; in test [2] (setting [5]) it was 5.25 nM; in test [3] (setting [7]), 575 nM. The Emax was 85% in test [1], 99% in test [2] (human recombinant PDE2A), 99% in test [2] and 88% in test [3] (setting [6]).
On to `C[C@@H]1CCN(C(=O)c2c(F)cccc2F)C[C@H]1c1cc(C(F)F)nc2ncnn12` [Compound 149], for which the IC50 in test [1] (read-out: pIC50 (converted)) was 5130 nM; in test [2] (setting [4]), 38.9 nM; in test [2] (setting [5]), 38.9 nM; in test [3] (setting [7]), 1820 nM. The Emax in test [1] is 66%; in test [2] (human recombinant PDE2A) it was 99%; in test [2] it was 99%; in test [3] (setting [6]), 83%.
Take `C[C@@H]1CCN(C(=O)c2cc(C(C)(C)C)cc(C(C)(C)C)c2)C[C@H]1c1cc(C(F)F)nc2ncnn12` [Compound 259]: the IC50 in test [1] (read-out: pIC50 (converted)) is 3550 nM; in test [2] (hPDE2A pIC50), 427 nM; in test [3] (setting [7]), 1700 nM; in test [3] (setting [9]), 1700 nM. Moreover, the Emax in test [1] came to 82%; in test [2] it was 99%; in test [3] (setting [6]) it was 92%; in test [3] (setting [8]), 92%.
For the molecule `Cc1cc(C(=O)N2[C@H]3CC[C@H](c4cc(C(F)F)nc5ncnn45)[C@@H]2CC3)c(F)c(C)n1` [Compound 400], the IC50 in test [1] is greater than 10000 nM; in test [2] (hPDE2A pIC50) it was 22.4 nM; in test [3] (hPDE10A2 or rPDE10A2 pIC50, human clone by default (no (r) mark)) it was greater than 10000 nM. For the same molecule, the Emax in test [1] was determined as 16%; in test [2], 99%; in test [3] (setting [8]), 41%.
For `Cc1nc(C(F)(F)F)ccc1C(=O)N1CC[C@@H](C)[C@H](c2cc(C(F)F)nc3ncnn23)C1` [Compound 263], the IC50 in test [1] (read-out: pIC50 (converted)) is 4900 nM; in test [2] (setting [5]) it was 129 nM; in test [3] (setting [7]), 5130 nM; in test [3] (setting [9]), 5130 nM. For the same molecule, the Emax in test [1] came out at 65%; in test [2], 99%; in test [3] (setting [6]), 64%; in test [3] (setting [8]) it was 64%.
`Cc1cc([C@@H]2CN(C(=O)c3ccnc(Cl)c3F)CC[C@H]2C)n2ncnc2n1` [Compound 11]: the IC50 in test [1] (read-out: pIC50 (converted)) is 4790 nM; in test [2] (setting [4]), 22.9 nM; in test [2] (setting [5]) it was 22.9 nM; in test [3] (setting [7]) it was 372 nM. Moreover, the Emax is 69% in test [1], 100% in test [2] (human recombinant PDE2A), 100% in test [2] and 95% in test [3] (setting [6]).
`Cc1cc([C@@H]2CN(C(=O)c3cccc4nc(C)oc34)CC[C@H]2C)n2ncnc2n1` [Compound 19]: the IC50 in test [1] (read-out: pIC50 (converted)) is 3090 nM; in test [2] (setting [4]) it was 10.5 nM; in test [2] (setting [5]) it was 10.5 nM; in test [3] (setting [7]) it was 129 nM. For the same molecule, the Emax amounted to 79% in test [1], 101% in test [2] (human recombinant PDE2A), 101% in test [2] and 96% in test [3] (setting [6]).
For the molecule `C[C@@H]1CCN(C(=O)c2ncccc2C(F)(F)F)C[C@H]1c1cc(C(F)F)nc2ncnn12` [Compound 253], the IC50 in test [1] (read-out: pIC50 (converted)) was greater than 10000 nM; in test [2] (setting [5]), 457 nM; in test [3] (setting [7]), greater than 10000 nM; in test [3] (setting [9]), greater than 10000 nM. In addition, the maximal effect (Emax) in test [1] was 17%; in test [2], 95%; in test [3] (setting [6]), 39%; in test [3] (setting [8]) it was 39%.
`C[C@@H]1CCN(C(=O)c2ccc3nc(N)sc3c2)C[C@H]1c1cc(C(F)F)nc2ncnn12` [Compound 88]: the IC50 in test [1] (read-out: pIC50 (converted)) was 389 nM; in test [2] (setting [4]) it was 0.209 nM; in test [2] (setting [5]), 0.209 nM; in test [3] (setting [7]), 3.98 nM. In addition, the Emax stood at 97% in test [1], 101% in test [2] (human recombinant PDE2A), 101% in test [2] and 99% in test [3] (setting [6]).
For `COc1cc(C(=O)N2[C@H]3CC[C@H](c4cc(C(F)F)nc5ncnn45)[C@@H]2CC3)ccc1F` [Compound 343], the figures for the IC50 in test [1] (read-out: pIC50 (converted)), in test [2] (setting [5]) and in test [3] (setting [9]) were greater than 10000 nM, 67.6 nM and 4570 nM, respectively. For the same molecule, the values for the Emax in test [1], in test [2] and in test [3] (setting [8]) were 44%, 102% and 68%, respectively.
With `Cc1cc([C@@H]2CN(C(=O)c3cnc(Cl)c(Cl)c3)CC[C@H]2C)n2ncnc2n1` [Compound 17], the IC50 in test [1] (read-out: pIC50 (converted)) was 4270 nM; in test [2] (setting [4]), 4.9 nM; in test [2] (setting [5]), 4.9 nM; in test [3] (setting [7]), 81.3 nM. Further, the Emax came out at 74% in test [1], 99% in test [2] (human recombinant PDE2A), 99% in test [2] and 97% in test [3] (setting [6]).
Consider `O=C(c1ccc(OC(F)(F)F)c(F)c1)N1[C@H]2CC[C@H](c3cc(C(F)F)nc4ncnn34)[C@@H]1CC2` [Compound 342], for which the IC50 in test [1] (read-out: pIC50 (converted)) is 4470 nM; in test [2] (setting [5]), 32.4 nM; in test [3] (setting [9]) it was 2690 nM. Moreover, the Emax in test [1] came out at 69%; in test [2], 100%; in test [3] (setting [8]) it was 77%.
On to `Cc1cc([C@@H]2CN(C(=O)c3cc4ccccc4o3)CC[C@H]2C)n2ncnc2n1` [Compound 8], for which the IC50 is 275 nM in test [1] (read-out: pIC50 (converted)), 1.1 nM in test [2] (setting [4]), 1.1 nM in test [2] (setting [5]) and 11.2 nM in test [3] (setting [7]). In addition, the Emax in test [1] was found to be 97%; in test [2] (human recombinant PDE2A), 100%; in test [2], 100%; in test [3] (setting [6]) it was 100%.
For `Cc1cc([C@@H]2CN(C(=O)c3cnc4ccc(C(F)(F)F)cn34)CC[C@H]2C)n2ncnc2n1` [Compound 20], the IC50 in test [1] (read-out: pIC50 (converted)) was 4270 nM; in test [2] (setting [4]), 12 nM; in test [2] (setting [5]) it was 12 nM; in test [3] (setting [7]), 132 nM. The Emax in test [1] is 74%; in test [2] (human recombinant PDE2A), 101%; in test [2], 101%; in test [3] (setting [6]) it was 98%.
Consider `O=C(c1ccc(Cl)s1)N1[C@H]2CC[C@H](c3cc(C(F)F)nc4ncnn34)[C@@H]1CC2` [Compound 351], for which the IC50 in test [1] (read-out: pIC50 (converted)) was 6310 nM; in test [2] (setting [5]), 51.3 nM; in test [3] (setting [9]) it was 2140 nM. Moreover, the Emax in test [1] was 69%; in test [2], 99%; in test [3] (setting [8]), 83%.
In the case of `O=C(c1ccnc2ccccc12)N1[C@H]2CC[C@H](c3cc(C(F)F)nc4ncnn34)[C@@H]1CC2` [Compound 318], in test [1], the “hPDE3B Emax” value is 11. Further, the “hPDE2A Emax” value in test [2] was found to be 89. In test [3] (setting [10]), the “hPDE10A2 or rPDE10A2 Emax” value amounted to 13 and the “hPDE10A2 or rPDE10A2 pIC50” value is less than 5.
`CCCC[C@H]1CCN(C(=O)c2cc(C)nc(C)c2)C[C@H]1c1cc(C(F)F)nc2ncnn12` (mixture of isomers) [Compound 219]: the IC50 was greater than 10000 nM in test [1] (read-out: pIC50 (converted)); 138 nM in test [2] (setting [4]); 138 nM in test [2] (setting [5]); 9120 nM in test [3] (setting [7]); 9120 nM in test [3] (setting [9]). Further, the maximal effect (Emax) turned out to be 18% in test [1]; 100% in test [2] (human recombinant PDE2A); 100% in test [2]; 45% in test [3] (setting [6]); 45% in test [3] (setting [8]).
As to `Cc1cc([C@@H]2CN(C(=O)c3oc4ccccc4c3C)CC[C@H]2C)n2ncnc2n1` [Compound 7], the IC50 in test [1] (read-out: pIC50 (converted)) was 75.9 nM; in test [2] (setting [4]), 0.794 nM; in test [2] (setting [5]) it was 0.794 nM; in test [3] (setting [7]), 17 nM. The Emax in test [1] turned out to be 100%; in test [2] (human recombinant PDE2A) it was 100%; in test [2] it was 100%; in test [3] (setting [6]), 101%.
With `C[C@@H]1CCN(C(=O)c2ccc(F)nc2)C[C@H]1c1cc(C(F)F)nc2ncnn12` [Compound 254], the IC50 is greater than 10000 nM in test [1] (read-out: pIC50 (converted)), 107 nM in test [2] (setting [5]), 3800 nM in test [3] (setting [7]) and 3800 nM in test [3] (setting [9]). Further, the Emax in test [1] amounted to 25%; in test [2], 99%; in test [3] (setting [6]), 70%; in test [3] (setting [8]) it was 70%.

As usually defined, the Emax is the greatest response seen or fitted, relative to the assay's reference.
